Measurements published in patent publication US20120035187A1 (priority 2009, published 2012).

Assays:
[1] = test system: hamsters with cerebellar ataxia; assay: Rotarod test in hamsters with cerebellar ataxia; format: in vivo, hamster; conditions: for Time of falling from rotarod: hamster with cerebellar ataxia, agent of Example 1, 0.5 ml/hamster intraperitoneally once a day for 56 days
Text: Since NK-4 was confirmed to have a neurodegenerative inhibitory action in Experiment 1, hamsters with cerebellar ataxia (cerebellar ataxia is called “cerebellar A” and hamsters with cerebellar ataxia are called “hamsters with cerebellar A”, hereinafter) as a suitable model for human neurodegenerative diseases (e.g., spinal cerebellar degeneration) were subjected to examine the influence of NK-4 administration on their behaviors and brain tissues. Twenty-five hamsters with natural mutation (Nna1 inhibition), which are known to lose Purkinje's cells after three-weeks of age and then induce a spontaneous onset of kinetic motor ataxia after seven-weeks of age (see Akita K. et al., “J. Neurogenetics”, Vol. 21, pp. 19-29, 2007), had been fed at Hayashibara Biochemical Laboratories., Inc., Okayama, Japan, were randomly allocated to the test groups 1 to 5, five heads in each group, as shown in Table 2. Prior to the onset of cerebellar A (at three-weeks of age), PBS was started to administer to the hamsters in the test group 1 at a dose of 10 ml/kg/day. Prior to the onset of cerebellar A (at three-weeks of age), NK-4 was started to be administered to the hamsters in the test groups 2 to 4 at a daily dose of 20 μg/kg, 100 μg/kg or 500 μg/kg. “IGF-1, human, a product name of insulin-like growth factor, commercialized by Assaypro LLC, MO, USA. These administered ingredients were intraperitoneally administered daily to hamsters once a day up to 10-weeks of age. The degree of symptom of cerebellar A and the improvement effect on the symptom by NK-4 were evaluated with an index of improvement in motor coordination of hamsters by conducting once a week the later described rotarod test and the slant tolerance test. At the age of 10-weeks, the hamsters were subjected to counting the falling down frequency and extracted their brains, which were then histologically evaluated. In parallel, the concentration of glutamic acid in the bloods and cerebrospinal fluids (CSF) of the hamsters was assayed. As a test group 6, five normal hamsters, with the same age as the hamsters with cerebellar A used in the test groups 1 to 5, were provided and tested similarly as the hamsters with cerebellar A in such a manner of intraperitoneally administering PBS to them at a dose of 10 ml/kg/day once a day up to 10-weeks of age.
As an index for coordinated movement, it was used a duration time of hamster's movement to staying on a rotarod by locomotion in synchronization with the turn of the rotarod; placing a hamster on an apparatus with a rotarod (having a diameter of 60 mm, prepared by Hayashibara Biochemical Laboratories, Inc., Okayama, Japan), turning at a constant rate of six rpm, and measuring the time until the hamster falls down from the rotarod (see Fernandez et al., “Proc. Natl. Acad. Sci. USA”, Vol. 95, pp. 1253-1258, 1998). The test was repeated six times for each hamster, where five-times of tests starting from the initiation of the test were made as a preliminary examination, and the time until each hamster fell down from the rotarod (called “falling time”, hereinafter) was measured, followed by averaging the falling times for each group consisting of five heads. The falling time was measured until 180 seconds. Based on the results, the relationship between the age and the falling time for each hamster with cerebellar A (test group 1) administered with PBS was graphed. […]
Similarly as in Experiment 2, 130 hamsters with cerebellar ataxia, born within the same week and 3-weeks of age, were randomly divided into 13 groups, consisting of 10 hamsters, respectively. […]

PC12-HS cells = assay: Evaluation B: neurite-outgrowth action in presence of NGF; format: cell-based, rat; conditions: for Evaluation B: Neurite-outgrowth action: 50 μl of 400 ng/ml test sample solution per well + NGF final 5 ng/ml
[2] = test system: ICR mice administered with amyloid β fragment; assay: Novel object recognition test, mouse administered with amyloid β fragment, agents of Example 1; format: in vivo; parameters: key: (novel − memorized seeking time)/(novel + memorized seeking time); conditions: agent of Example 1, 0.3 ml/head intraperitoneally once a day up to the 8th day
Protocol: One hundred and thirty ICR mice (commercialized by Charles Liver Laboratories Japan Inc., Kanagawa, Japan) were randomly divided into 13 groups, consisting of 10 mice in each group. Amyloid β fragment, represented by an amino acid sequence of SEQ ID NO: 1, used in Experiment 3 was aged at 37° C. for four days, and administered to the lateral ventricle of each mouse in an amount of 9 nmol/6 μl/mouse (the administration method is referred to “Brain Research”, Vol. 706, pp. 181-193 (1996)). […] The mice (10 heads) in the remaining one group were intraperitoneally administered with a sterilized 10% maltose solution (pyrogen-free) once a day up to the 8th day in an amount of 0.3 ml/mouse (control). On the 8th day after the administration, novel object recognition test (see, Japanese Patent Kokai No. 2008-193941) was performed and the average discrimination index (the ratio of prolonged seeking time for novel object to the total seeking time) as a cognitive function index were shown in Table 26. On the 9th day after the administration, the brain of the mice was anatomically isolated, prepared into tissue samples in conventional manner. Depositions of aggregation of amyloid fragment were observed by staining with Congo red or thioflavin T, and degeneration or defect of hippocampal pyramidal cells concerned with cognitive function. The degeneration or the defect of hippocampal pyramidal cells was evaluated by 4-point grade score, by regarding the condition of the control without administration of amyloid β fragment as “none (O)”, “slight (1)”, “moderate (2)”, and “sever (3)”, and the average scores of 10 mice are shown in Table 20.
An experiment apparatus (a glass box of 30 cm in depth, 45 cm in width, and 30 cm in height) and two kinds of objects to be memorized by mice were provided. On the day before the test, the mice were allowed to seek freely in the experiment apparatus with no seeking object for 10 minutes for acclimation. On the test day, the following test was performed twice at an interval of 60 minutes. In the first trial, the same two objects were placed in the apparatus at its both ends, and the mouse was allowed to seek freely for 10 minutes. On the second trial, one of the objects used in the first test was replaced with a different kind of object, and then the mouse was allowed to seek freely for five minutes. In each experiment, when the mouse brought its muffle close to the object within 1-cm apart from the object, or made its muffle or whiskers to contact with the object, the mouse was judged to have a seeking behavior, and the seeking time thereof was measured. The object discrimination index [={(seeking time for novel object)−(seeking time for memorized object)}/{(seeking time of novel object)+(seeking time of memorized object)}] was calculated. The object discrimination index means the ratio of an increased seeking time for novel object to the total seeking time, and the ratio becomes larger when the memory of the once sought object was more strongly held, and it becomes smaller when the memory was more weakly held.

microglia = assay: NO production from microglia in the presence of LPS; format: cell-based, rat; conditions: concrete data not shown
[3] = final concentration of compound 200 ng/ml
[4] = final concentration of compound 400 ng/ml
[5] = final concentration of compound 800 ng/ml
[6] = final concentration of compound 1600 ng/ml
[7] = compound concentration 80 ng/ml
[8] = compound concentration 400 ng/ml
[9] = compound concentration 2000 ng/ml
[10] = compound concentration 10000 ng/ml

Row | SMILES | Time of falling from rotarod [1] [s] | Evaluation B: Neurite-outgrowth action (PC12-HS cells; 3 days) | Rate of cells exhibiting neurite outgrowth (%) (PC12-HS cells; [3]) | Rate of cells exhibiting neurite outgrowth (%) (PC12-HS cells; [4]) | Rate of cells exhibiting neurite outgrowth (%) (PC12-HS cells; [5]) | Rate of cells exhibiting neurite outgrowth (%) (PC12-HS cells; [6]) | Object discrimination index [2] | improving effect on motor coordination (in words) ([1]; cerebellar ataxia hamsters, agents of Example 1 compared among pentamethine cyanine dye compounds) | Percentage (%) of cells with neurite outgrowth (PC12-HS cells; 50 μl/well of 2 μg/ml test solution + NGF final 5 ng/ml, 3 days) [%] | Action on neurite outgrowth (%) (PC12-HS cells; [7]) | Action on neurite outgrowth (%) (PC12-HS cells; [8]) | Action on neurite outgrowth (%) (PC12-HS cells; [9]) | Action on neurite outgrowth (%) (PC12-HS cells; [10]) | suppressing NO production from microglia (microglia)
1 | CC[n+]1ccccc1/C=C/c1ccc(N(C)C)cc1 [NK-557] | 39.9 ± 5.1 | ∘ (The test sample with a neurite outgrowth rate of 30% or higher was judged to be equivalent or more (∘) compared with NK-4) | 10> % | 20 ± 2 | 43 ± 5 | 84 ± 42 | 0.4 |  |  |  |  |  |  | 
2 | CCCCCCCCCN1C(C)=CS\C1=C/C=C(\C=C\c1scc(C)[n+]1CCCCCCCCC)c1scc(C)[n+]1CCCCCCCCC.[I-].[I-] [NK-393] | 86.5 ± 1.8 |  |  |  |  |  | 0.2 | particularly high improving effect on motor coordination | 68 |  |  |  |  | 
3 | CCCN1C=CC(=CC=C(C=Cc2cc[n+](CCC)c3ccccc23)c2cc[n+](CCC)c3ccccc23)c2ccccc21.[I-].[I-] [NK-234] |  |  |  |  |  |  |  |  |  | 24 ± 7 | 57 ± 7 | 61 ± 3 | 66 ± 20 | actions of suppressing NO production
4 | CCN1/C(=C/C=C(/C=C/c2sc3ccccc3[n+]2CC)c2sc3ccccc3[n+]2CC)Sc2ccccc21.[I-].[I-] [NK-100] | 61.9 ± 9.4 | ∘ (The test sample with a neurite outgrowth rate of 30% or higher was judged to be equivalent or more (∘) compared with NK-4) | 36 ± 2% | 40 ± 8 | 52 ± 7 | 89 ± 6 | 0.1 |  |  |  |  |  |  | 
5 | CCCCCCCN1C=CC(=CC=C(C=Cc2cc[n+](CCCCCCC)c3ccccc23)c2cc[n+](CCCCCCC)c3ccccc23)c2ccccc21.[I-].[I-] [NK-28] | 69.0 ± 28 |  |  |  |  |  | 0.2 |  |  | 38 ± 1 | 64 ± 10 | 70 ± 11 | 46 ± 20 | 
6 | CN(C)c1ccc(/C=C/c2oc3ccccc3[n+]2C)cc1 [NK-528] | 37.5 ± 11.2 | ∘ (The test sample with a neurite outgrowth rate of 30% or higher was judged to be equivalent or more (∘) compared with NK-4) |  |  |  |  | 0.3 |  |  |  |  |  |  | 
7 | COc1ccc2oc(/C=C/c3ccc(N(C)C)cc3)[n+](C)c2c1 [NK-1516] | 42.4 ± 6.3 | ∘ (The test sample with a neurite outgrowth rate of 30% or higher was judged to be equivalent or more (∘) compared with NK-4) |  |  |  |  | 0.4 |  |  |  |  |  |  | 
8 | CCCCCCCCN1C=CC(=CC=C(C=Cc2cc[n+](CCCCCCCC)c3ccccc23)c2cc[n+](CCCCCCCC)c3ccccc23)c2ccccc21.[I-].[I-] [NK-147] | 56.5 ± 9.8 |  |  |  |  |  | 0.2 |  |  | 32 ± 7 | 50 ± 5 | 70 ± 11 | 35 ± 14 | 
